Experimental data taken from ChEMBL document CHEMBL1201862, “PubChem BioAssay data set” (2004).
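Growth conditions: 96-well plates. Treatment: test compound, 48 hours, 5 concentrations. Analysis: linear interpolation between bracketing concentrations; unreached endpoints set to highest concentration. GI50: concentration for 50% inhibition of growth.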 Calls of active or inactive are those of the source. Cut-off read from the data, not from the text of the source: active = GI50 up to about 1.1 µM and inactive = higher.

Legend:
Test in all cases: NCI tumour cell line growth inhibition, 48 h
LOX IMVI = system: LOX IMVI
MCF7 = system: MCF7
NCI-H522 = system: NCI-H522
SK-OV-3 = system: SK-OV-3
M19-MEL = system: M19-MEL
DMS-114 = system: DMS-114
RPMI-8226 = system: RPMI-8226
SNB-78 = system: SNB-78
EKVX = system: EKVX
U-251 = system: U-251
K562 = system: K562
RXF 393 = system: RXF 393
Malme-3M = system: Malme-3M
HOP-92 = system: HOP-92
NCI-H226 = system: NCI-H226
UACC-62 = system: UACC-62
CAKI-1 = system: CAKI-1
SF-295 = system: SF-295
SNB-75 = system: SNB-75
SK-MEL-5 = system: SK-MEL-5
OVCAR-8 = system: OVCAR-8
NCI/ADR-RES = system: NCI/ADR-RES
SK-MEL-2 = system: SK-MEL-2
HCC 2998 = system: HCC 2998
SK-MEL-28 = system: SK-MEL-28
IGROV-1 = system: IGROV-1
SF-268 = system: SF-268
KM-20L2 = system: KM-20L2
DLD-1 = system: DLD-1
NCI-H23 = system: NCI-H23
OVCAR-3 = system: OVCAR-3
SF-539 = system: SF-539
SNB-19 = system: SNB-19
HOP-18 = system: HOP-18
HT-29 = system: HT-29
A498 = system: A498
UACC-257 = system: UACC-257
SN12C = system: SN12C
HL-60 = system: HL-60
OVCAR-4 = system: OVCAR-4
KM12 = system: KM12
COLO 205 = system: COLO 205
OVCAR-5 = system: OVCAR-5
HOP-62 = system: HOP-62
HCT-116 = system: HCT-116
HCT-15 = system: HCT-15
SW-620 = system: SW-620
NCI-H460 = system: NCI-H460
MOLT-4 = system: MOLT-4
UO-31 = system: UO-31
A549 = system: A549
CCRF-CEM = system: CCRF-CEM
DMS-273 = system: DMS-273
M14 = system: M14
ACHN = system: ACHN
LXFL 529 = system: LXFL 529
786-0 = system: 786-0
TK-10 = system: TK-10
SR = system: SR

In the case of `Nc1nc(Cl)nc2c1ncn2C1CC(O)C(CO)O1` (centres undefined), the GI50 (LOX IMVI) is reported as 3.62 µM (inactive), the GI50 (MCF7) is reported as 9.75 µM (inactive) and the GI50 (NCI-H522) is reported as 25.5 µM (inactive). For the same compound, the GI50 (SK-OV-3) was 52.7 µM (inactive), the GI50 (M19-MEL) was > 30.3 µM (inactive) and the GI50 (DMS-114) was 0.228 µM (active). For the same compound, the GI50 (RPMI-8226) was 54.2 µM (inactive), the GI50 (SNB-78) was > 100 µM (inactive) and the GI50 (EKVX) was 1.21 µM (inactive). The GI50 (U-251) was 10.4 µM (inactive), the GI50 (K562) was 13.4 µM (inactive) and the GI50 (RXF 393) was 24.9 µM (inactive). For the same compound, the GI50 (Malme-3M) was > 100 µM (inactive), the GI50 (HOP-92) was 1.3 µM (inactive) and the GI50 (NCI-H226) was 16.7 µM (inactive). The GI50 (UACC-62) was 0.463 µM (active), the GI50 (CAKI-1) was 0.665 µM (active) and the GI50 (SF-295) was 67.9 µM (inactive). The GI50 (SNB-75) was 36.6 µM (inactive), the GI50 (SK-MEL-5) was 5.12 µM (inactive) and the GI50 (OVCAR-8) was 0.097 µM (active). For the same compound, the GI50 (NCI/ADR-RES) was 103 nM (active), the GI50 (SK-MEL-2) was > 100 µM (inactive) and the GI50 (HCC 2998) was 19.3 µM (inactive). The GI50 (SK-MEL-28) was 43.3 µM (inactive), the GI50 (IGROV-1) was 81.8 µM (inactive) and the GI50 (SF-268) was 26.4 µM (inactive). The GI50 (KM-20L2) was 2.42 µM (inactive), the GI50 (DLD-1) was > 100 µM (inactive) and the GI50 (NCI-H23) was 0.592 µM (active). The GI50 (OVCAR-3) was 25.8 µM (inactive), the GI50 (SF-539) was 20.3 µM (inactive) and the GI50 (SNB-19) was 1.47 µM (inactive). The GI50 (HOP-18) was > 100 µM (inactive), the GI50 (HT-29) was 19.3 µM (inactive) and the GI50 (A498) was 2.95 µM (inactive). For the same compound, the GI50 (UACC-257) was 1.76 µM (inactive), the GI50 (SN12C) was 0.738 µM (active) and the GI50 (HL-60) was 0.0601 µM (active). The GI50 (OVCAR-4) was > 100 µM (inactive), the GI50 (KM12) was > 100 µM (inactive) and the GI50 (COLO 205) was 33.4 µM (inactive). For the same compound, the GI50 (OVCAR-5) was 1.78 µM (inactive), the GI50 (HOP-62) was 0.33 µM (active) and the GI50 (HCT-116) was 4.04 µM (inactive). The GI50 (HCT-15) was 45.9 µM, the GI50 (SW-620) was 23 µM (inactive) and the GI50 (NCI-H460) was 7.28 µM (inactive). For the same compound, the GI50 (MOLT-4) was 0.15 µM (active), the GI50 (UO-31) was 0.701 µM (active) and the GI50 (A549) was 4.26 µM (inactive). The GI50 (CCRF-CEM) was 0.0713 µM (active) and the GI50 (DMS-273) was 3.89 µM (inactive).
For `CCOC(=O)Cc1csc(Nc2ccccc2[N+](=O)[O-])n1`, the GI50 (LOX IMVI) was > 46.7 µM (inactive), the GI50 (NCI-H522) was > 100 µM (inactive) and the GI50 (SK-OV-3) was > 100 µM (inactive). For the same compound, the GI50 (M19-MEL) was > 100 µM (inactive), the GI50 (DMS-114) was > 100 µM (inactive) and the GI50 (RPMI-8226) was > 100 µM (inactive). The GI50 (SNB-78) was > 100 µM (inactive), the GI50 (EKVX) was > 100 µM (inactive) and the GI50 (U-251) was > 100 µM (inactive). For the same compound, the GI50 (K562) was > 100 µM (inactive), the GI50 (M14) was > 100 µM (inactive) and the GI50 (RXF 393) was > 100 µM (inactive). The GI50 (ACHN) was > 100 µM (inactive), the GI50 (Malme-3M) was > 100 µM (inactive) and the GI50 (HOP-92) was > 100 µM (inactive). The GI50 (NCI-H226) was > 100 µM (inactive), the GI50 (UACC-62) was > 100 µM (inactive) and the GI50 (CAKI-1) was > 100 µM (inactive). For the same compound, the GI50 (SF-295) was > 100 µM (inactive), the GI50 (SNB-75) was > 100 µM (inactive) and the GI50 (SK-MEL-5) was > 100 µM (inactive). For the same compound, the GI50 (OVCAR-8) was > 100 µM (inactive), the GI50 (SK-MEL-2) was > 100 µM (inactive) and the GI50 (HCC 2998) was > 100 µM (inactive). For the same compound, the GI50 (SK-MEL-28) was > 100 µM (inactive), the GI50 (IGROV-1) was > 100 µM (inactive) and the GI50 (SF-268) was > 100 µM (inactive). For the same compound, the GI50 (KM-20L2) was > 100 µM (inactive), the GI50 (NCI-H23) was > 100 µM (inactive) and the GI50 (OVCAR-3) was > 100 µM (inactive). The GI50 (SF-539) was > 100 µM (inactive), the GI50 (LXFL 529) was > 100 µM (inactive) and the GI50 (SNB-19) was > 100 µM (inactive). The GI50 (HOP-18) was > 100 µM (inactive), the GI50 (HT-29) was > 100 µM (inactive) and the GI50 (A498) was > 100 µM (inactive). The GI50 (UACC-257) was > 100 µM (inactive), the GI50 (786-0) was > 100 µM (inactive) and the GI50 (SN12C) was > 100 µM (inactive). For the same compound, the GI50 (HL-60) was > 100 µM (inactive), the GI50 (TK-10) was > 100 µM (inactive) and the GI50 (OVCAR-4) was > 100 µM (inactive). The GI50 (SR) was 29.7 µM (inactive), the GI50 (KM12) was > 100 µM (inactive) and the GI50 (COLO 205) was > 100 µM (inactive). The GI50 (OVCAR-5) was > 100 µM (inactive), the GI50 (HOP-62) was > 100 µM (inactive) and the GI50 (HCT-116) was > 76.4 µM (inactive). For the same compound, the GI50 (HCT-15) was over 56.6 µM, the GI50 (SW-620) was > 57.5 µM (inactive) and the GI50 (NCI-H460) was > 100 µM (inactive). For the same compound, the GI50 (MOLT-4) was > 100 µM (inactive), the GI50 (UO-31) was > 100 µM (inactive) and the GI50 (A549) was > 100 µM (inactive). The GI50 (CCRF-CEM) was > 100 µM (inactive) and the GI50 (DMS-273) was 99.1 µM (inactive).
